According to PubChem BioAssay AID1259407 (Chemical Carcinogenesis Research Information System (CCRIS), 2018):
Calls of active or inactive are those of the source. The rule behind the calls is not given here.

System: CCRIS mutagenicity, Ames/micronucleus/aberration tests
Test: CCRIS mutagenicity studies
[1] = Test System: AMES SALMONELLA TYPHIMURIUM, Strain/Indicator: TA98, Metabolic Activation: RAT, LIVER, S-9, AROCLOR 1254, Method: STANDARD PLATE
[2] = Test System: AMES SALMONELLA TYPHIMURIUM, Strain/Indicator: TA100, Metabolic Activation: RAT, LIVER, S-9, AROCLOR 1254, Method: STANDARD PLATE
[3] = Test System: AMES SALMONELLA TYPHIMURIUM, Strain/Indicator: TA1538, Metabolic Activation: RAT, LIVER, S-9, AROCLOR 1254, Method: STANDARD PLATE
[4] = Test System: AMES SALMONELLA TYPHIMURIUM, Strain/Indicator: TA98, Metabolic Activation: NONE, Method: PREINCUBATION
[5] = Test System: AMES SALMONELLA TYPHIMURIUM, Strain/Indicator: TA98, Metabolic Activation: RAT, LIVER, S-9, KANECHLOR 500, Method: PREINCUBATION
[6] = Test System: AMES SALMONELLA TYPHIMURIUM, Strain/Indicator: TA100, Metabolic Activation: NONE, Method: PREINCUBATION
[7] = Test System: AMES SALMONELLA TYPHIMURIUM, Strain/Indicator: TA98, Metabolic Activation: NONE, Method: STANDARD PLATE
[8] = Test System: AMES SALMONELLA TYPHIMURIUM, Strain/Indicator: TA100, Metabolic Activation: NONE, Method: STANDARD PLATE

## Cc1cc2c(c3ccc4ccccc4c13)CCC2=O
[1]
  mutagenic call: active; positive
Test System: AMES SALMONELLA TYPHIMURIUM, Strain/Indicator: TA100, Metabolic Activation: RAT, LIVER, MICROSOMES, 15,16-DIHYDRO-11-METHYL-17(H)-CYCLOPENTA[A] PHENANTHREN-17-ONE, Method: STANDARD PLATE
  mutagenic call: inactive; negative
Test System: AMES SALMONELLA TYPHIMURIUM, Strain/Indicator: TA100, Metabolic Activation: RAT, LIVER, MICROSOMES, BENZO[A]PYRENE, Method: STANDARD PLATE
  mutagenic call: active; positive
Test System: AMES SALMONELLA TYPHIMURIUM, Strain/Indicator: TA100, Metabolic Activation: RAT, LIVER, MICROSOMES, CLOFIBRATE, Method: STANDARD PLATE
  mutagenic call: inactive; negative
Test System: AMES SALMONELLA TYPHIMURIUM, Strain/Indicator: TA100, Metabolic Activation: RAT, LIVER, MICROSOMES, DEXAMETHASONE, Method: STANDARD PLATE
  mutagenic call: inactive; negative
Test System: AMES SALMONELLA TYPHIMURIUM, Strain/Indicator: TA100, Metabolic Activation: RAT, LIVER, MICROSOMES, ISONIAZID, Method: STANDARD PLATE
  mutagenic call: inactive; negative
Test System: AMES SALMONELLA TYPHIMURIUM, Strain/Indicator: TA100, Metabolic Activation: RAT, LIVER, MICROSOMES, PHENOBARBITONE, Method: STANDARD PLATE
  mutagenic call: inactive; negative
Test System: AMES SALMONELLA TYPHIMURIUM, Strain/Indicator: TA100, Metabolic Activation: RAT, LIVER, MICROSOMES, Method: STANDARD PLATE
  mutagenic call: inactive; negative
[2]
  mutagenic call: active; positive
[3]
  mutagenic call: active; positive

## CC(=O)Nc1ccc2cccnc2c1
[4]
  mutagenic call: inactive; negative
[5]
  mutagenic call: active; positive
[6]
  mutagenic call: inactive; negative
Test System: AMES SALMONELLA TYPHIMURIUM, Strain/Indicator: TA100, Metabolic Activation: RAT, LIVER, S-9, KANECHLOR 500, Method: PREINCUBATION
  mutagenic call: active; positive

## Cc1ccc([N+](=O)[O-])cc1C
[4]
  mutagenic call: inactive; negative
[5]
  mutagenic call: inactive; negative
[6]
  mutagenic call: inactive; negative

## Cn1c(NO)nc2c3cccnc3ccc21
Test System: AMES SALMONELLA TYPHIMURIUM, Strain/Indicator: TA98(NR), Metabolic Activation: NADPH, Method: STANDARD PLATE
  mutagenic call: active; positive
Test System: AMES SALMONELLA TYPHIMURIUM, Strain/Indicator: TA98(NR), Metabolic Activation: NONE, Method: STANDARD PLATE
  mutagenic call: active; positive
Test System: AMES SALMONELLA TYPHIMURIUM, Strain/Indicator: TA98(NR), Metabolic Activation: RAT, LIVER, MICROSOMES, NADPH, Method: STANDARD PLATE
  mutagenic call: active; positive
Test System: AMES SALMONELLA TYPHIMURIUM, Strain/Indicator: TA98(NR), Metabolic Activation: RAT, LIVER, MICROSOMES, Method: STANDARD PLATE
  mutagenic call: active; positive
Test System: AMES SALMONELLA TYPHIMURIUM, Strain/Indicator: TA98(NR), Method: STANDARD PLATE
  mutagenic call: active; positive
[7]
  mutagenic call: active; positive

## Cc1ccc2c(c1)-c1ccccc1C2C (configuration not stated)
[1]
  mutagenic call: active; positive
[2]
  mutagenic call: active; positive

## COc1ccc(-c2nc(-c3ccccc3)c(-c3ccccc3)[nH]2)cc1
[7]
  mutagenic call: active; positive
Test System: AMES SALMONELLA TYPHIMURIUM, Strain/Indicator: TA98, Metabolic Activation: RAT LIVER S-9, 3-METHYLCHOLANTHRENE, SODIUM PHENOBARBITAL, Method: STANDARD PLATE
  mutagenic call: inactive; negative
[8]
  mutagenic call: active; positive
Test System: AMES SALMONELLA TYPHIMURIUM, Strain/Indicator: TA100, Metabolic Activation: RAT LIVER S-9, 3-METHYLCHOLANTHRENE, SODIUM PHENOBARBITAL, Method: STANDARD PLATE
  mutagenic call: inactive; negative

## CC1(C)[C@@H](O[C@H]2O[C@H](C(=O)O)[C@@H](O)[C@H](O)[C@H]2O[C@@H]2O[C@H](C(=O)O)[C@@H](O)[C@H](O)[C@H]2O)CC[C@]2(C)[C@H]3C(=O)C=C4[C@@H]5C[C@@](C)(C(=O)O)CC[C@]5(C)CC[C@@]4(C)[C@]3(C)CC[C@@H]12
End Point: IN VIVO MICRONUCLEUS, Test System: BONE MARROW POLYCHROMATIC ERYTHROCYTES, Species: MOUSE, Strain/Sex: DDY/MALE, Route: IP
  mutagenic call: inactive; negative
Test System: AMES SALMONELLA TYPHIMURIUM, Strain/Indicator: TA97A, Metabolic Activation: NONE, Method: PREINCUBATION
  mutagenic call: inactive; negative
Test System: AMES SALMONELLA TYPHIMURIUM, Strain/Indicator: TA97A, Metabolic Activation: RAT, LIVER, S-9, AROCLOR 1254, Method: PREINCUBATION
  mutagenic call: inactive; negative
[7]
  mutagenic call: inactive; negative
[1]
  mutagenic call: inactive; negative
[8]
  mutagenic call: inactive; negative
[2]
  mutagenic call: inactive; negative
Test System: AMES SALMONELLA TYPHIMURIUM, Strain/Indicator: TA102, Metabolic Activation: NONE, Method: PREINCUBATION
  mutagenic call: inactive; negative
Test System: AMES SALMONELLA TYPHIMURIUM, Strain/Indicator: TA102, Metabolic Activation: RAT, LIVER, S-9, AROCLOR 1254, Method: PREINCUBATION
  mutagenic call: inactive; negative
Test System: AMES SALMONELLA TYPHIMURIUM, Strain/Indicator: TA1535, Metabolic Activation: NONE, Method: STANDARD PLATE
  mutagenic call: inactive; negative
Test System: AMES SALMONELLA TYPHIMURIUM, Strain/Indicator: TA1535, Metabolic Activation: RAT, LIVER, S-9, AROCLOR 1254, Method: STANDARD PLATE
  mutagenic call: inactive; negative
Test System: AMES SALMONELLA TYPHIMURIUM, Strain/Indicator: TA1537, Metabolic Activation: NONE, Method: STANDARD PLATE
  mutagenic call: inactive; negative
Test System: AMES SALMONELLA TYPHIMURIUM, Strain/Indicator: TA1537, Metabolic Activation: RAT, LIVER, S-9, AROCLOR 1254, Method: STANDARD PLATE
  mutagenic call: inactive; negative
Test System: AMES SALMONELLA TYPHIMURIUM, Strain/Indicator: TA1538, Metabolic Activation: NONE, Method: STANDARD PLATE
  mutagenic call: inactive; negative
[3]
  mutagenic call: inactive; negative
Test System: E. COLI, Strain/Indicator: WP2, Metabolic Activation: NONE, Method: STANDARD PLATE
  mutagenic call: inactive; negative
Test System: E. COLI, Strain/Indicator: WP2, Metabolic Activation: RAT, LIVER, S-9, AROCLOR 1254, Method: STANDARD PLATE
  mutagenic call: inactive; negative

## COC(=O)/C(C#N)=C/c1ccco1
[4]
  mutagenic call: inactive; negative
